{"source": "patent US20240366611A1", "about": "“METHODS OF TREATING A DISEASE OR DISORDER” (Ascentage Pharma (Suzhou) Co., Ltd., priority 2021, published 2024)", "key": {"[1]": {"test_system": "CD4+CD45RBhigh T-cell transfer-induced IBD in CB17 mice", "assay": "T cell transfer induced inflammatory bowel disease (IBD) model", "assay_type": "in vivo", "conditions": "90 mg/kg po qd day 14 to day 41", "source_text": "Female CB17 mice (8 weeks old) were obtained from Zhejiang Vital River Laboratory Animal Co. Ltd. Animals were housed and handled in a temperature-controlled environment with a 12-h light/12-h dark cycle. A total of 30 mice were assigned to 3 groups by randomization based on body weight.\nTo generate T cell transfer induced colitis, 95 female Balb/c mice, aged 8-10 weeks, were used to prepare naive CD4^+CD45RB^high T and CD4^+CD45RB^low T cells. The mouse spleens were harvested in precooled DPBS, grinded into cell suspension and passed through a 70 μm cell filter after erythrocytes lysed by ACK. Cells were collected and counted by centrifugation. Then, CD4 positive T cells were isolated by using negative magnetic bead separation kit. CD4^+CD45RB^high naive T cells were selected by flow cytometry and used for model construction. 20 CB17 model mice were intraperitoneally injected with 5×10^5 naive CD4^+CD45RB^high T cells each on Day 0. 10 mice in negative control group were intraperitoneally injected with 5×10^5 CD4^+CD45RB^low T cells on Day 0.\nMice in Group 2 were treated with vehicle for 28 days (po, qd, from day 14 to day 41). Mice in Group 3 were treated with 90 mg/kg Cpd. 73 for 28 days (therapeutic regimen, po, qd, from day 14 to day 41). The protocols and procedures involving the care and use of animals were approved by the Institutional Animal Care and Use Committee (IACUC) at WuxiApptec (Shanghai, China).\nClinical signs of IBD were assessed every day based on the score of disease activity index (DAI) which was evaluated from two parameters using a scoring system from 0 to 4: stool consistency (0, normal stool; 1, soft but still formed stool; 2, soft and not formed stool; 3, very soft and wet stool; 4, watery diarrhea), and body weight loss (0, no body weight loos; 1, 1-5% body weight loss; 2, 6-10% body weight loss; 3, 11-20% body weight loss; 4, >20% body weight loss).\nAt the end of the study (day 42), the animals were euthanized, dissected and the entire colon was quickly removed and gently cleared of feces.\nAt the end of the study (day 42), all the animals were sacrificed by CO2. The colon was Swiss-rolled and fixed with neutralized PFA followed by H&E staining. After that, the pathologists from WuXi clinical pathological analysis platform, who were blinded to animal ID, reviewed the H&E staining and scored. The pathological scoring standards were as follows: crypt architecture (normal, 0; severe crypt distortion with loss of entire crypts, 3), degree of inflammatory cell infiltration (normal, 0; dense inflammatory infiltrate, 3), muscle thickening (normal, 0; marked muscle thickening present, 3), goblet cell depletion (absent, 0; present, 1) and crypt abscess (absent, 0; present, 1)."}, "[2]": {"test_system": "H3K27me3 in TER119+ erythroid lineage cells", "assay": "H3K27me3 level in TER119+ erythroid lineage cells from bone marrow (FACS, H3K27me3/H3 ratio)", "assay_type": "in vivo, CD-1 mice", "experimental": "(§1) Female CD-1 mice (8 weeks old) were housed and handled in a temperature-controlled environment with a 12-h light/12-h dark cycle. A total of 25 mice were assigned to 5 groups by randomization based on body weight, followed by 5 days of treatment with vehicle (po, qd), 3 mg/kg Cpd. 73 (po, qd), 10 mg/kg Cpd. 73 (po, qd), 30 mg/kg Cpd. 73 (po, qd), or 90 mg/kg Cpd. 73 (po, qd). The protocols and procedures involving the care and use of animals were approved by the Institutional Animal Care and Use Committee (IACUC) of WuXiAppTec (Shanghai) Co., Ltd. (Shanghai, China).\n(§2) Mice were euthanatized 4 hours post the last dose. Whole blood and bone marrow were collected. Bone marrow cells were flushed from femur and tibia with IMDM+/+ (IMDM, 10% heat inactivated FBS, 100 U/mL penicillin and 100 μg/mL streptomycin). Aggregate was removed by passing through 40 μm cell strainer. 5 mL DPBS was used to pellet the cells after centrifugation, and the cell number was counted. Whole blood was added with 1×RBC lysis buffer remove RBC (whole blood: 1×RBC lysis buffer=1:9), and mononuclear cells were collected by centrifugation. The cells were then washed with 1×DPBS for once and resuspended in 3 ml DPBS after centrifugation followed by cell number counting.\n(§3) Bone marrow cells were stained with FITC-conjugated anti-mouse TER-119 antibody (Thermo Fisher, 11-5921-82) and eFluor 506-conjugated anti-mouse CD45 antibody (Thermo Fisher, 69-0451-82). TER-119+ cells were erythroid lineage cells. PBMC were stained with eFlour 450-conjugated anti-mouse CD11b antibody (Invitrogen, 48-0112-82), PerCP-eFluor710-conjugated anti-mouse CD3 antibody (Invitrogen, 46-0032-82), eFluor 506-conjugated anti-mouse CD45 antibody (Thermo Fisher, 69-0451-82). CD45+CD3−CD11b+ cells were monocytes from PBMC.\n(§4) After washing, centrifugation and fixation, the cells were permeabilized and further incubated with antibodies of H3K27m3 (Tri-Methyl-Histone H3 (Lys27) (C36B11) Rabbit mAb (PE Conjugate), CST, 40724S) and H3 (Histone H3 (D1H2) XP® Rabbit mAb (Alexa Fluor®647 Conjugate), CST, 12230S), followed by FACS analysis to quantify the mean fluorescence intensity of target cells. The ratio between the fluorescence intensity of H3K27me3 and H3 were used to reflect the level of H3K27me3 in the cells."}, "[3]": {"test_system": "H3K27me3 in PBMC monocytes", "assay": "H3K27me3 level in PBMC monocytes (FACS, H3K27me3/H3 ratio)", "assay_type": "in vivo, CD-1 mice", "conditions": "vs vehicle", "experimental": "as §1, §2, §3, §4"}}, "data": [{"smiles": "CC(C)N1Cc2cc(C(F)(F)F)ncc2-c2cnc(NCc3c(F)ccc4c3CCO4)n3cnc(c23)C1=O", "note": "[Cpd. 73, 12-(((5-fluoro-2,3-dihydrobenzofuran-4-yl)methyl)amino)-4-isopropyl-7-(trifluoromethyl)-4,5-dihydro-3H-2,4,8,11,12a-pentaazabenzo[4,5]cycloocta[1,2,3-cd]inden-3-one]", "values": [{"measurement": "body weight loss", "setting": "[1]", "result": "improved"}, {"measurement": "colon length", "setting": "[1]; day 42, vehicle 7.72±0.18 cm", "result": "10.26±0.22", "unit": "cm"}, {"measurement": "pathological score (H&E, colon)", "setting": "[1]; day 42, vehicle 9.00±0.47", "result": "3.70±0.37"}, {"measurement": "colon weight", "setting": "[1]; day 42, vehicle 439.10±25.46 mg", "result": "323.40 ± 16.06", "unit": "mg"}, {"measurement": "DAI score", "setting": "[1]; on day 42, vehicle 4.90±0.41", "result": "1.4±0.27"}, {"measurement": "decrease in H3K27me3 level", "setting": "[2]; 3 mg/kg po qd×5 days, vs vehicle", "result": 21.2, "unit": "%"}, {"measurement": "decrease in H3K27me3 level", "setting": "[2]; 10 mg/kg po qd×5 days, vs vehicle", "result": 18.7, "unit": "%"}, {"measurement": "decrease in H3K27me3 level", "setting": "[2]; 30 mg/kg po qd×5 days, vs vehicle", "result": 21.6, "unit": "%"}, {"measurement": "decrease in H3K27me3 level", "setting": "[2]; 90 mg/kg po qd×5 days, p<0.01 vs vehicle", "result": 39.7, "unit": "%"}, {"measurement": "percent of decrease of H3K27me3 level", "setting": "[3]; 3 mg/kg po qd×5 days", "result": 17.9, "unit": "%"}, {"measurement": "percent of decrease of H3K27me3 level", "setting": "[3]; 10 mg/kg po qd×5 days", "result": 40.5, "unit": "%"}, {"measurement": "percent of decrease of H3K27me3 level", "setting": "[3]; 30 mg/kg po qd×5 days", "result": 8.8, "unit": "%"}, {"measurement": "percent of decrease of H3K27me3 level", "setting": "[3]; 90 mg/kg po qd×5 days", "result": 41.2, "unit": "%"}]}]}
